Assays:
[1] = second class: low solubility and high permeability; first class: high solubility and high permeability; cited from earlier work
[2] = release of free hormone; cited from earlier work
[3] = test system: triple negative breast cancer MDA-MB-231 cell line; assay: cell proliferation in MDA-MB-231; format: cell-based

Row | Compound | class according to the biopharmaceutical classification system (BCS) [1] | further results
1 | CC(C)(C#N)c1cc(Cn2cncn2)cc(C(C)(C)C#N)c1 [anastrazole] | first class | –
2 | C[C@]12CC[C@@H]3c4ccc(OS(N)(=O)=O)cc4CC[C@H]3[C@@H]1CCC2=O [estrone sulfamate] | – | uterotropic activity [2]: strong uterotropic activity
3 | COc1cc([C@@H]2c3cc4c(cc3[C@@H](O[C@@H]3O[C@@H]5CO[C@@H](C)O[C@H]5[C@H](O)[C@H]3O)[C@H]3COC(=O)[C@H]23)OCO4)cc(OC)c1O [etoposide, reference compound] | – | inhibition of cell proliferation [3]: similar
4 | N#Cc1ccc(C(c2ccc(C#N)cc2)n2cncn2)cc1 [letrozole] | first class | –
